Reference: PMC11992618, “Development of cyclopeptide inhibitors specifically disrupting FXR–coactivator interaction in the intestine as a novel therapeutic strategy for MASH” (Life Metabolism, 2025)

Columns and labels:
FXR-LBD = biological target: T1, FXR-LBD (Homo sapiens, UniProt Q96RI1); experiment: Co-immunoprecipitation of BIOTIN-DC646 and purified FXR-LBD; assay type: binding; settings: BIOTIN-DC646 50 μmol/L with purified FXR-LBD
T1 construct: 50 μmol/L Biotin-DC646 were incubated with 50 μmol/L purified FXR-LBD
T1 sequence (Q96RI1 262-486 limits assumed): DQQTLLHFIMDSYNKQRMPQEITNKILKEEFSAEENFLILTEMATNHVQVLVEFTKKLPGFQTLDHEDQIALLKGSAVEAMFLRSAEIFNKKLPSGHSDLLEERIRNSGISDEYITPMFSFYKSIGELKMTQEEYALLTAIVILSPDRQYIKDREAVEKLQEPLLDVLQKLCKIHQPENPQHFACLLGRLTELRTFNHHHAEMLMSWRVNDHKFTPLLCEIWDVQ
Experimental: For the co-immunoprecipitation of Biotin-DC646 and FXR-LBD, 50 μmol/L Biotin-DC646 were incubated with 50 μmol/L purified FXR-LBD at room temperature for 2 h at indicated conditions. These mixtures were then immunoprecipitated with beads which had been incubated with anti-His antibody (12698S, Cell Signaling Technology) at room temperature for 1 h. Immunoblotting was performed using the anti-BIOTIN antibody (sc-101339, Santa Cruz Biotechnology).

hFXR = biological target: T2, hFXR (Homo sapiens, UniProt Q96RI1); experiment: Luciferase reporter assay, FXR antagonism in transfected HEK293T cells; assay type: cell-based; settings: 100 µmol/L, in the presence of GW4064, HEK293T
T2 construct: expressed in transfected cells; host or cells: HEK293T
T2 sequence (Q96RI1 1-472 isoform Q96RI1-2): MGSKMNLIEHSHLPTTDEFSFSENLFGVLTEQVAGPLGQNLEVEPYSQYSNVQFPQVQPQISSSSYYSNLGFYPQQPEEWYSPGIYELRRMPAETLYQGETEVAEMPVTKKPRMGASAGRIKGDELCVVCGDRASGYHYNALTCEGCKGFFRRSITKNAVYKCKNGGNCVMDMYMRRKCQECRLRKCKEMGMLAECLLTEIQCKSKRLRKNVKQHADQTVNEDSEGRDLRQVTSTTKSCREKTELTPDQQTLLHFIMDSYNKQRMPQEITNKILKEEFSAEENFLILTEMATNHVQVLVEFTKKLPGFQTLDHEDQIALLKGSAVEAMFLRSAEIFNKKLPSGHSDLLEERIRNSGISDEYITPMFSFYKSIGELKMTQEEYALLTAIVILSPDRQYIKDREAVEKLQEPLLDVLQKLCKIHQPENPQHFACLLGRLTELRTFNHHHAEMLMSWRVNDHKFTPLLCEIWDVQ
Experimental: HEK293T cells were used for the luciferase report assays and were cultured in DMEM with 10% FBS. The cells were incubated in DMEM media with 1% FBS for 4–6 h and then exposed to the indicated concentrations of compounds for 24 h.
For the FXR antagonism experiment, HEK293T cells were seeded in 96-well plates and transfected with pCMV-Script-hFXR and pGL4.11-hSHP-luciferase at a density of 3 × 10^4 cells/well, before culturing overnight. The compounds at indicated concentrations were added to the cells and incubated at 37°C for 1 h, before stimulating with 1% DMSO (negative control) and 5 μmol/L GW4064 (positive control) for 24 h. For the FXR agonism experiment, HEK293T cells were seeded in 96-well plates and transfected with pCMV-Script-hFXR and pGL4.11-hSHP-luciferase at a density of 3 × 10^4 cells/well, before culturing overnight. Then compounds at indicated concentrations were added to the cells and incubated at 37°C for 24 h. […]
The luciferase activities and cell viabilities were detected by the FIREFLYGLO Luciferase Assay System and Cell Titer-Blue® Cell Viability Assay according to the manufacturer’s instructions. Firefly luciferase activities and cell viabilities were measured using Spectra Max M5e (Molecular Devices).

[1] = Water solubility (co-crystallisation attempts); assay type: physicochemical
Experimental: To explore the molecular mechanism underlying DC646-mediated FXR antagonism, we determined the structure of the DC646 by X-ray crystal analysis (Supplementary Fig. S5). We also made efforts to co-crystalize DC646 with hFXRα-LBD. […] As an alternative, the AlphaScreen assay was conducted to investigate the mechanism (Fig. 3a).

[2] = tested on: GAN diet-induced MASH in Fxr^△IE mice; experiment: GAN diet-fed Fxr^△IE mice; assay type: in vivo, mouse; settings: GAN diet 20 weeks, oral 10 mg/kg daily for 8 weeks
Experimental: For the long-term MASH model, 8- to 10-week-old male C57BL/6 J mice were fed with an MCS diet or MCD diet for 2 weeks, before the MCD models were administered with vehicle or GUDCA (50 mg/kg), OCA (30 mg/kg), and DC646 (10 mg/kg) for 4 weeks. The serum, liver, and intestine were collected 2 h after the final dosing. Male Fxr^△IE mice (8–10 weeks old) were fed with a GAN diet for 20 weeks and administered with vehicle or DC646 (10 mg/kg) from the 12th week for 8 weeks. The serum, liver, and intestine were collected 2 h after the final dosing.
Hepatic TG and TC, and plasma ALT and AST levels were measured using commercial kits from Nanjing Jiancheng Bioengineering Institute according to the manufacturer’s instructions. To measure hepatic TG contents, liver tissues (~10 mg) were homogenized in 100 μL 1% TritonX-100 and centrifuged at 3000 rpm for 10 min. […] Hepatic TG or TC levels were read at 510 or 500 nm using a microplate reader (Versamax, Molecular Devices) and normalized using the protein concentration. […] The data were acquired using the kinetic mode with an interval of 30 s and 31 total reads at 340 nm using a microplate reader (Versamax, Molecular Devices).
Tissue specimens were fixed in 10% formalin for 12–24 h before being dehydrated and paraffin-embedded. […] At least three discontinuous liver sections were evaluated for each mouse.

For `CC(C)C[C@@H]1NC(=O)[C@@H]2CN(CCO2)c2cccc3c2c(cn3[Si](C(C)C)(C(C)C)C(C)C)C[C@H](NS(=O)(=O)C(F)(F)F)C(=O)OCCCCNC(=O)[C@H](CC(C)C)NC(=O)[C@@H]2CN(CCO2)c2cccc3c2c(cn3[Si](C(C)C)(C(C)C)C(C)C)C[C@H](NS(=O)(=O)C(F)(F)F)C(=O)OCCCCNC1=O` [DC646, N,N'-((1^2R,1^4S,16^2R,16^4S,4R,13R,19R,28R)-13,28-diisobutyl-5,12,15,20,27,30-hexaoxo-2^1,17^1-bis(triisopropylsilyl)-2^1H,17^1H-6,21-dioxa-11,14,26,29-tetraaza-1(4,2),16(2,4)-dimorpholina-2,17(4,3)-diindolacyclotriacontaphane-4,19-diyl)bis(1,1,1-trifluoromethanesulfonamide)], the “Binding with FXR-LBD (co-immunoprecipitation)” value (FXR-LBD) was “directly bind”, the “Suppression of FXR activation (relative luciferase activity)” value (hFXR) was “more than 70%” and the Water solubility [1] was “poor water solubility”. The “Liver/body weight ratio, serum ALT, serum AST, liver TG, liver TC and NAS score” value [2] was “did not reduce” and the “mRNA levels of genes in the intestinal FXR signaling” value [2] was “no difference”.
